Measurements published in patent US9187429B2, “Phenyl-tetrahydroisoquinoline derivatives” (Hoffmann-La Roche Inc., priority 2012, dated 2015).
Where a name gives a salt, the structure may show the parent alone.

Legend:
CYP11B2 = CYP11B2 (Homo sapiens (Human), UniProt P19099); assay: G-402 cellular enzyme assay, human CYP11B2 (aldosterone release); format: cell-based; conditions: G-402 cells expressing human CYP11B2, 1 μM Deoxycorticosterone
Text: (§1) The expression plasmids contains the ORF for either human/cyno CYP11B1 or CYP11B2 under the control of a suitable promoter (CMV-promoter) and a suitable resistance marker (neomycin). Using standard techniques the expression plasmid is transfected into G-402 cells and these cells are then selected for expressing the given resistance markers. Individual cell-clones are then selected and assessed for displaying the desired enzymatic activity using 11-Deoxycorticosterone (Cyp 11B2) or 11-Deoxycortisol (Cyp 11B1) as a substrate.
(§2) G-402 cells expressing CYP11 constructs were established as described above and maintained in McCoy's 5a Medium Modified, ATCC Catalog No. 30-2007 containing 10% FCS and 400 μg/ml G418 (Geneticin) at 37° C. under an atmosphere of 5% CO2/95% air. […] For assaying enzymatic activity, cells were plated onto 96 well plates and incubated for 16 h. An aliquot of the supernatant is then transferred and analyzed for the concentration of the expected product (Aldosterone for CYP11B2; Cortisol for CYP11B1). The concentrations of these steroids can be determined using HTRF assays from CisBio analyzing either Aldosterone or Cortisol.
(§3) Inhibition of the release of produced steroids can be used as a measure of the respective enzyme inhibition by test compounds added during the cellular enzyme assay. The dose dependent inhibition of enzymatic activity by a compound is calculated by means of plotting added inhibitor concentrations (x-axes) vs. measured steroid/product level (y-axes). The inhibition is then calculated by fitting the following 4-parameter sigmoidal function (Morgan-Mercer-Flodin (MMF) model) to the raw data points using the least squares method:
(§4) [formula] wherein, A is the maximum y value, B is the EC50 factor determined using XLFit, C is the minimum y value and D is the slope value.
(§5) EC50 values for compounds claimed herein were tested with the G402-based assay system described. Cyp 11B2 enzyme activity was tested in presence of 1 μM Deoxycorticosterone and variable amounts of inhibitors; Cyp 11B1 enzyme activity was tested in presence of 1 μM Deoxycortisol and variable amounts of inhibitors.

human CYP11B1 = human CYP11B1 (Homo sapiens (Human), UniProt P15538); assay: G-402 cellular enzyme assay, human CYP11B1 (cortisol release); format: cell-based; conditions: G-402 cells expressing human CYP11B1, 1 μM Deoxycortisol
Text: as §1, §2, §3, §4, §5

Sequence of human CYP11B1 (P15538 25-503): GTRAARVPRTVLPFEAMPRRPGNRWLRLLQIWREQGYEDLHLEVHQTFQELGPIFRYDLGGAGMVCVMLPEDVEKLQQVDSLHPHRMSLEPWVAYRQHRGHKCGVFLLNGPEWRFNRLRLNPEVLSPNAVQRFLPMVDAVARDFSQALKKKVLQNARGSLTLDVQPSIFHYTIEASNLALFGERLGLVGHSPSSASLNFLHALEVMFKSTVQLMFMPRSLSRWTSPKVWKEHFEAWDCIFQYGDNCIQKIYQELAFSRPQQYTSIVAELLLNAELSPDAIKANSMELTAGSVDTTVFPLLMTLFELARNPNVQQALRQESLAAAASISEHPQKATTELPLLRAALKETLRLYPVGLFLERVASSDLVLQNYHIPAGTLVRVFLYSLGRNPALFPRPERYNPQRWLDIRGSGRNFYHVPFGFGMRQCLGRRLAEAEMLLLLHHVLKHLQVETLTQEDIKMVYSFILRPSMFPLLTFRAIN
Sequence of CYP11B2 (P19099 25-503): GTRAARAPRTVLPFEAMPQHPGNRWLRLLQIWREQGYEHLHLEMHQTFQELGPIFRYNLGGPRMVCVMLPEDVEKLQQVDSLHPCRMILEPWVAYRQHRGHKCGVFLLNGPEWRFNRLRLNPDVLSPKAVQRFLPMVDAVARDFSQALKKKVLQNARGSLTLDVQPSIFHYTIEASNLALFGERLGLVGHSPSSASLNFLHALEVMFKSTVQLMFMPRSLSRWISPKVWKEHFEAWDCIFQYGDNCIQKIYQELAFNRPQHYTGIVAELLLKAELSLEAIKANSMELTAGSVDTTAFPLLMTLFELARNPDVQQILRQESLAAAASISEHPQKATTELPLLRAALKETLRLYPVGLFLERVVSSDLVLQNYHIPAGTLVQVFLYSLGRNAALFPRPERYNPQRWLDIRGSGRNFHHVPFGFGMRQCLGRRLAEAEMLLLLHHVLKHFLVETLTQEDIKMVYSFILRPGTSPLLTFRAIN

SMILES	EC50 (CYP11B2)	EC50 (human CYP11B1)
CCC(=O)NC1CCCc2c(-c3ccc(C(F)(F)F)cc3F)cncc21 (racemic) [Example 33, (rac)-N-(4-(2-Fluoro-4-(trifluoromethyl)phenyl)-5,6,7,8-tetrahydroisoquinolin-8-yl)propionamide]	159 nM	14700 nM
CCC(=O)NC1CCCc2c(-c3ccc(F)cc3F)cncc21 (racemic) [Example 42, (rac)-N-(4-(2,4-Difluorophenyl)-5,6,7,8-tetrahydroisoquinolin-8-yl)propionamide]	109 nM	2400 nM
CCC(=O)NC1CCc2c(-c3ccc(Cl)c(F)c3)cncc21 (racemic) [Example 55, (rac)-N-(4-(4-Chloro-3-fluorophenyl)-6,7-dihydro-5H-cyclopenta[c]pyridin-7-yl)propionamide]	12 nM	184 nM
CCC(=O)NC1CCc2c(-c3ccc(C(F)(F)F)cc3F)cncc21 (racemic) [Example 61, (rac)-N-(4-(2-Fluoro-4-(trifluoromethyl)phenyl)-6,7-dihydro-5H-cyclopenta[c]pyridin-7-yl)propionamide]	44 nM	3610 nM
CCS(=O)(=O)NC1CCc2c(-c3ccc(C(F)(F)F)c(F)c3)cncc21 (racemic) [Example 71, (rac)-N-(4-(3-Fluoro-4-(trifluoromethyl)phenyl)-6,7-dihydro-5H-cyclopenta[c]pyridin-7-yl)ethanesulfonamide]	242 nM	3020 nM
OC1CCc2c(-c3ccc(C(F)(F)F)cc3F)cncc21 (racemic) [Example 80, (rac)-4-(2-Fluoro-4-(trifluoromethyl)phenyl)-6,7-dihydro-5H-cyclopenta[c]pyridin-7-ol]	4.5 nM	427 nM
OC1CCc2c(-c3ccc(C(F)(F)F)c(F)c3)cncc21 (racemic) [Example 82, (rac)-4-(3-Fluoro-4-(trifluoromethyl)phenyl)-6,7-dihydro-5H-cyclopenta[c]pyridin-7-ol]	5.2 nM	71 nM
CCC(=O)NC1CCc2c(-c3ccc(C(F)(F)F)c(F)c3)cncc21 (racemic) [Example 90, (rac)-N-(4-(3-Fluoro-4-(trifluoromethyl)phenyl)-6,7-dihydro-5H-cyclopenta[c]pyridin-7-yl)propionamide]	26.7 nM	1900 nM
O=S(=O)(NC1CCc2c(-c3ccc(C(F)(F)F)c(F)c3)cncc21)C1CC1 (racemic) [Example 91, (rac)-Cyclopropanesulfonic acid [4-(3-fluoro-4-trifluoromethyl-phenyl)-6,7-dihydro-5H-[2]pyrindin-7-yl]-amide]	301 nM	389 nM
CCC(=O)OC1CCc2c(-c3ccc(C(F)(F)F)c(F)c3)cncc21 (racemic) [Example 92, (rac)-Propionic acid 4-(3-fluoro-4-trifluoromethyl-phenyl)-6,7-dihydro-5H-[2]pyrindin-7-yl ester]	16.4 nM	441 nM
NC1CCc2c(-c3ccc(C(F)(F)F)cc3)cncc21 (racemic) [Example 93, (rac)-4-(4-Trifluoromethyl-phenyl)-6,7-dihydro-5H-[2]pyrindin-7-ylamine]	86.3 nM	364 nM
O=S(=O)(NC1CCc2c(-c3ccc(C(F)(F)F)cc3)cncc21)C1CC1 (racemic) [Example 94, (rac)-Cyclopropanesulfonic acid [4-(4-trifluoromethyl-phenyl)-6,7-dihydro-5H-[2]pyrindin-7-yl]-amide]	148 nM	2330 nM
CS(=O)(=O)NC1CCc2c(-c3ccc(C(F)(F)F)cc3)cncc21 (racemic) [Example 95, (rac)-N-[4-(4-Trifluoromethyl-phenyl)-6,7-dihydro-5H-[2]pyrindin-7-yl]-methanesulfonamide]	1800 nM	1960 nM
CCCS(=O)(=O)NC1CCc2c(-c3ccc(C(F)(F)F)cc3)cncc21 (racemic) [Example 96, (rac)-Propane-1-sulfonic acid [4-(4-trifluoromethyl-phenyl)-6,7-dihydro-5H-[2]pyrindin-7-yl]-amide]	373 nM	3870 nM

Continued by falling EC50 (CYP11B2), values first:

EC50 (CYP11B2)	EC50 (human CYP11B1)	SMILES
730 nM	12700 nM	CCS(=O)(=O)NC1CCc2c(-c3ccc(C(F)(F)F)cc3)cncc21 (racemic) [Example 64, (rac)-N-(4-(4-(Trifluoromethyl)phenyl)-6,7-dihydro-5H-cyclopenta[c]pyridin-7-yl)ethanesulfonamide]
79 nM	4040 nM	CCC(=O)NC1CCc2c(-c3ccc(C(F)(F)F)cc3)cncc21 (racemic) [Example 49, (rac)-N-(4-(4-(Trifluoromethyl)phenyl)-6,7-dihydro-5H-cyclopenta[c]pyridin-7-yl)propionamide]
65.9 nM	1190 nM	O=C(O)COC1CCc2c(-c3ccc(C(F)(F)F)cc3)cncc21 (racemic) [Example 99, (rac)-2-(4-(4-(Trifluoromethyl)phenyl)-6,7-dihydro-5H-cyclopenta[c]pyridin-7-yloxy)acetic acid hydrochloride]
54.7 nM	1380 nM	NC1CCc2c(-c3ccc(C(F)(F)F)c(F)c3)cncc21 (racemic) [Example 89, (rac)-4-(3-Fluoro-4-trifluoromethyl-phenyl)-6,7-dihydro-5H-[2]pyrindin-7-ylamine]
47 nM	826 nM	CCC(=O)NC1CCCc2c(-c3ccc(F)c(F)c3)cncc21 (racemic) [Example 44, (rac)-N-(4-(3,4-Difluorophenyl)-5,6,7,8-tetrahydroisoquinolin-8-yl)propionamide]
29 nM	3240 nM	CCC(=O)NC1CCCc2c(-c3ccc(C(F)(F)F)c(F)c3)cncc21 (racemic) [Example 39, (rac)-N-(4-(3-Fluoro-4-(trifluoromethyl)phenyl)-5,6,7,8-tetrahydroisoquinolin-8-yl)propionamide]
27 nM	1150 nM	CCC(=O)NC1CCCc2c(-c3cc(F)c(F)cc3F)cncc21 (racemic) [Example 43, (rac)-N-(4-(2,4,5-Trifluorophenyl)-5,6,7,8-tetrahydroisoquinolin-8-yl)propionamide]
19.6 nM	628 nM	COC(=O)COC1CCc2c(-c3ccc(C(F)(F)F)cc3)cncc21 (racemic) [Example 98, (rac)-Methyl 2-(4-(4-(trifluoromethyl)phenyl)-6,7-dihydro-5H-cyclopenta[c]pyridin-7-yloxy)acetate]
16.9 nM	740 nM	OC1CCc2c(-c3ccc(C(F)(F)F)cc3)cncc21 (racemic) [Example 83, (rac)-4-(4-(Trifluoromethyl)phenyl)-6,7-dihydro-5H-cyclopenta[c]pyridin-7-ol]
14 nM	1010 nM	CCC(=O)NC1CCCc2c(-c3ccc(Cl)c(F)c3)cncc21 (racemic) [Example 36, (rac)-N-(4-(4-Chloro-3-fluorophenyl)-5,6,7,8-tetrahydroisoquinolin-8-yl)propionamide]
12.9 nM	430 nM	CNC(=O)COC1CCc2c(-c3ccc(C(F)(F)F)cc3)cncc21 (racemic) [Example 100, (rac)-N-Methyl-2-(4-(4-(trifluoromethyl)phenyl)-6,7-dihydro-5H-cyclopenta[c]pyridin-7-yloxy)acetamide]
10 nM	156 nM	CCC(=O)NC1CCc2c(-c3ccc(F)c(C)c3)cncc21 (racemic) [Example 58, (rac)-N-(4-(4-Fluoro-3-methylphenyl)-6,7-dihydro-5H-cyclopenta[c]pyridin-7-yl)propionamide]
4.8 nM	5 nM	CC1(O)CCc2c(-c3ccc(C(F)(F)F)cc3)cncc21 (racemic) [Example 84, (rac)-7-Methyl-4-(4-(trifluoromethyl)phenyl)-6,7-dihydro-5H-cyclopenta[c]pyridin-7-ol]
3 nM	177 nM	CCC(=O)NC1CCCc2c(-c3ccc(Cl)c(Cl)c3)cncc21 (racemic) [Example 45, (rac)-N-(4-(3,4-Dichlorophenyl)-5,6,7,8-tetrahydroisoquinolin-8-yl)propionamide]
1.4 nM	72.4 nM	CC(C)(C)OC(=O)COC1CCc2c(-c3ccc(C(F)(F)F)cc3)cncc21 (racemic) [Example 97, (rac)-tert-Butyl 2-(4-(4-(trifluoromethyl)phenyl)-6,7-dihydro-5H-cyclopenta[c]pyridin-7-yloxy)acetate]
1.3 nM	12 nM	N#Cc1ccc(-c2cncc3c2CCC3O)cc1 (racemic) [Example 81, (rac)-4-(7-Hydroxy-6,7-dihydro-5H-cyclopenta[c]pyridin-4-yl)benzonitrile]
